Measured values published in US5747235A, “Silver halide light sensitive emulsion layer having enhanced photographic sensitivity” (Eastman Kodak Company, priority 1996, dated 1998).
Where a name gives a salt, the structure may show the parent alone.

Experiments:
[1] = Example 2: photographic speed and fog, 365 nm exposure, acids vs corresponding esters, emulsion T-1; set-up: Fog: unit not given here; settings: for Fog / S365: undyed; for S365: control=100
Description: This chemically sensitized emulsion was then used to prepare the experimental coating variations indicated in Table I. All of the experimental coating variations in Table I contained the hydroxybenzene 2,4-disulfocatechol (HB3) at a concentration of 13 mmole/mole Ag, added to the melt before the addition of any further addenda. The fragmentable electron donor compounds as indicated in Table I were added from an aqueous potassium bromide solution, or from a methanol solution, before additional water, gelatin, and surfactant were added to the emulsion melts.
(§1) For photographic evaluation, each of the coating strips was exposed for 0.1 sec to a 365 nm emission line of a Hg lamp filtered through a Kodak Wratten filter number 18A and a step wedge ranging in density from 0 to 4 density units in 0.2 density steps. The exposed film strips were developed for 6 min in Kodak Rapid X-ray Developer (KRX). S365, relative sensitivity at 365 nm, was evaluated at a density of 0.2 units above fog.
The coatings described in Table II all contain the hydroxybenzene, 2,4-disulfocatechol (HB3) at a concentration of 13 mmole/mole Ag, added to the melt before any further addenda.

[2] = Example 14: blue light sensitivity and fog after post-exposure bath, emulsion T-1; settings: bathed after exposure
Description: Samples of the coating were exposed to a xenon flash of 10^-3 sec duration filtered through a 2.0 neutral density filter, Kodak Wratten filters 35 and 38A, and a step wedge ranging in density from 0 to 3 density units in 0.15 density steps. These conditions allowed only blue light to expose the coatings. After exposure, one sample of the coating was subjected to each of the following treatments:
B. Post-exposure bath for 15 min in a solution of 5.4×10^-4 M NaBr and 3.0'10^-6 M S-3 at pH=6.0. (Bath 1)
Post-exposure bath for 15 min in a solution of 5.4×10^-4 M NaBr and 1.5×10^-5 M S-3 at pH=6.0. (Bath 2)
The coatings subjected to the post-exposure baths were then rinsed to remove excess solution and all coatings were developed together for 6 min in Kodak Rapid X-ray Developer (KRX). Relative sensitivity to blue light, Sblue, was evaluated at a density of 0.15 units above fog.

[3] = Example 13: photographic speed and fog, 365 nm exposure, cubic emulsion C-3; settings: for Fog / S365: 0.02 x10^-3 mol/mol Ag
Description: as §1
A chloride containing cubic emulsion with uniform halide distribution was precipitated using deionized gelatin. Emulsion C-3 was an AgClI emulsion with a 1.5% I content and a cubic edge length of 0.36 μm. The emulsion was chemically sensitized by adding 15 mg of Au2 S/mole Ag using a gelatin dispersion. The chemical sensitizer was added to the emulsion at 40° C., the temperature was then raised to 60° C. and the emulsion held for 20 min before cooling back to 40° C. These experimental coating variations contained the hydroxybenzene, 2,4-disulfocatechcol (HB3) at a concentration of 13 mmole/mole Ag, added to the melt before the addition of any further compounds. Some of the variations were then dyed with the sensitizing dye D-I, added from methanol solution. The fragmentable electron donor compound S-9 was then added to the emulsion melts at 40° C. and coatings were prepared and tested as described in Example 1 except that the additional gelatin used to prepare the coatings described in Table XIII was deionized gelatin.

CCSCCN(c1ccc(C)cc1)[C@@H](C)C(=O)[O-].[Na+] [Compound S-3, N-(4-Methylphenyl)-N-(2-ethylthio-ethyl)alanine sodium salt]
Fog ([1]; 0.00220 x10^-3 mole/mole Ag): 0.07
S365 ([1]; 0.00220 x10^-3 mole/mole Ag): 110
Fog ([1]; 0.00700 x10^-3 mole/mole Ag): 0.06
S365 ([1]; 0.00700 x10^-3 mole/mole Ag): 120
Fog ([1]; 0.02200 x10^-3 mole/mole Ag): 0.11
S365 ([1]; 0.02200 x10^-3 mole/mole Ag): 141
Fog ([1]; 0.07000 x10^-3 mole/mole Ag): 0.57
Fog ([1]; 0.22000 x10^-3 mole/mole Ag): 1.24
speed and fog change ([1]; undyed T-1 emulsion): both speed and fog increases
sensitivity gain relative to unbathed coating [2]: ~2 X

CCSCCN(c1ccccc1)C(C)C(=O)O (stereo not drawn) [Compound S-9, N-(Phenyl)-N-(2-thioethyl-ethyl)alanine sodium salt]
Fog ([3]; dye I 0.61 x10^-3): 0.14
S365 ([3]; dye I 0.61 x10^-3, dyed control 74): 129
Fog ([3]; no dye): 0.15
S365 ([3]; no dye, control=100): 118
speed increase ([3]; undyed AgClI cubic emulsion): 1.2 X
